Results from ChEMBL document CHEMBL4808208, “Hepatoselective Dihydroquinolizinone Bis-acids for HBsAg mRNA Degradation” (ACS Med Chem Lett, 2021).
“And” between values parts separate entries of the source, which are not always exact repeats. Equal values may be shown once. The source made the active and inactive calls. No cut-off for these calls is given here.

Columns and labels:
[1] = Apparent permeability across basolateral to apical side in MDCK-MDR1 cells at 1 uM measured after 120 mins by LC-MS/MS analysis; assay type: ADME, cell-based, Canis lupus familiaris; settings: dog
[2] = Apparent permeability across apical to basolateral side in MDCK-MDR1 cells at 1 uM measured after 120 mins by LC-MS/MS analysis; assay type: ADME, cell-based, Canis lupus familiaris; settings: dog
[3] = Apparent permeability of the compound across apical to basolateral side in human Caco-2 cells at 10 uM incubated for 1 hr; assay type: ADME, cell-based
Cytochrome P450 2D6 = Cytochrome P450 2D6 (Homo sapiens, UniProt P10635); test: Inhibition of CYP2D6 in human liver microsomes using dextromethorphan as substrate preincubated for 5 mins followed by NADPH addition by LC-MS/MS analysis; assay type: ADME
[4] = 1-Octanol/saturated PBS buffer distribution coefficient, logD of the compound incubated for 1 hr by LC-MS/MS analysis; assay type: physicochemical
[5] = molecular target: T1, Solute carrier organic anion transporter family member 1B3 (Homo sapiens, UniProt Q9NPD5); test: Substrate activity at OATP1B3 (unknown origin) expressed in HEK293 cells assessed as ratio of drug uptake in absence of transporter inhibitor, estradiol-17beta-glucuronide to drug uptake in presence of transporter inhibitor, estradiol-17beta-glucuronide by LC-MS/MS analysis; assay type: ADME, cell-based
T1 sequence (Q9NPD5 whole entry): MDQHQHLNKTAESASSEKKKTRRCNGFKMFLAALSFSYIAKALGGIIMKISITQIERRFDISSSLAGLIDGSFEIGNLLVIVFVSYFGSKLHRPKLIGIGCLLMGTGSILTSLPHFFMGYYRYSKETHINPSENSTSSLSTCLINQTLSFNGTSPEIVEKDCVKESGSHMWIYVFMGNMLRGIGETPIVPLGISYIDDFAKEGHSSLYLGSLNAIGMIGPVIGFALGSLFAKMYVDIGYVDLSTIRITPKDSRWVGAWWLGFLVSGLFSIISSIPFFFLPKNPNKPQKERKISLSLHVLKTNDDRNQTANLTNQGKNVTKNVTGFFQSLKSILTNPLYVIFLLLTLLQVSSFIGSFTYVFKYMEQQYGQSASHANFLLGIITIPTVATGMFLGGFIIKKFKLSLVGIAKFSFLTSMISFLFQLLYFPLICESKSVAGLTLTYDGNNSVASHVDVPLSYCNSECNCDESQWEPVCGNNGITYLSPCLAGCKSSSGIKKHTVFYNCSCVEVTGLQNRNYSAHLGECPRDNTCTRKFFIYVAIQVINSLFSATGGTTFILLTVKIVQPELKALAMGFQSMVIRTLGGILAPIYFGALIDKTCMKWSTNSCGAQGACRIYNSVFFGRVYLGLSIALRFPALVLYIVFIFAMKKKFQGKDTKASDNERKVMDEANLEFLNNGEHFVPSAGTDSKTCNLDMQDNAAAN

[6] = Oral bioavailability in CD-1 mouse plasma at 8 mg/kg measured for 24 hrs by LC-MS/MS analysis; assay type: ADME, organism-based
[7] = Cytotoxicity against human HepG2.2.15 cells assessed as reduction in cell viability measured after 4 days by CellTiter-Glo reagent based assay; parameters: species or system HepG2 2.2.15; settings: time 4 day
[8] = Efflux ratio of apparent permeability in human Caco-2 cells at 10 uM incubated for 1 hr; assay type: ADME, cell-based
Cytochrome P450 3A4 = Cytochrome P450 3A4 (Homo sapiens, UniProt P08684); test: Inhibition of CYP3A4 in human liver microsomes using midazolam as substrate preincubated for 5 mins followed by NADPH addition by LC-MS/MS analysis; assay type: ADME
[9] = molecular target: T2, Solute carrier organic anion transporter family member 1B1 (Homo sapiens, UniProt Q9Y6L6); test: Substrate activity at OATP1B1 (unknown origin) expressed in HEK293 cells assessed as ratio of drug uptake in absence of transporter inhibitor,estradiol-17beta-glucuronide to drug uptake in presence of transporter inhibitor, estradiol-17beta-glucuronide by LC-MS/MS analysis; assay type: ADME, cell-based
T2 sequence (Q9Y6L6 whole entry): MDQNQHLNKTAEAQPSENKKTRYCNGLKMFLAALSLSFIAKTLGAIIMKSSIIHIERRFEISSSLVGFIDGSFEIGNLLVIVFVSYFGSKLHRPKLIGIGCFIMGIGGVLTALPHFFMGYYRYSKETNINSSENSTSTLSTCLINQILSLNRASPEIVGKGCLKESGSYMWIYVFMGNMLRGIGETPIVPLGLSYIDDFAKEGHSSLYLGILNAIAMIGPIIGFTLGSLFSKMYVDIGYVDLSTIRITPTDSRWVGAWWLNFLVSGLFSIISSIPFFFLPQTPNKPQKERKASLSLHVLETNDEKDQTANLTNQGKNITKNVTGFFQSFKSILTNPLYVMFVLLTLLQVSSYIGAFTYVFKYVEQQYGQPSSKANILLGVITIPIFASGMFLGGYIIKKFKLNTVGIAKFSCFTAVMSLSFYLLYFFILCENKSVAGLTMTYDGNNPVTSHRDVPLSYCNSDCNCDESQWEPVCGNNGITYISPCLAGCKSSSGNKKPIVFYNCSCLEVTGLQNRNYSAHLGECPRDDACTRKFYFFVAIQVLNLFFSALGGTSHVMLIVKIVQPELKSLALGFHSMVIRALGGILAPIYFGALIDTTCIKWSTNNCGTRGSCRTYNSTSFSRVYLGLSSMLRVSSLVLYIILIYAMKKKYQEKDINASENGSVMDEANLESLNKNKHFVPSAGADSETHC

[10] = Clearance in CD-1 mouse at 3 mg/kg, iv measured for 24 hrs by LC-MS/MS analysis; assay type: ADME, organism-based; settings: in vivo
[11] = Drug concentration in CD-1 mouse liver at 8 mg/kg, po measured after 2 hrs by LC-MS/MS analysis; assay type: ADME, organism-based; settings: read-out: Ct
[12] = molecular target: Terminal nucleotidyltransferase 4B (Homo sapiens) (UniProt Q8NDF8); test: Inhibition of Myc-DDK-tagged human PAPD5 expressed in HEK293 cells assessed as inhibition of poly-adenylation reaction using P32-labeled RNA oligonucleotides (5'-GCCUUUCAUCUCUAACUGCGAAAAAAAAAA-3') as substrate measured for 20 mins by phosphor imaging analysis; settings: dose 0.37-10 µM
[13] = Drug concentration in CD-1 mouse liver at 8 mg/kg, po measured after 6 hrs by LC-MS/MS analysis; assay type: ADME, organism-based; settings: read-out: Ct
Hepatitis B virus = test: Antiviral activity against Hepatitis B virus infected in human HepG2.2.15 cells assessed as reduction in HBV pregenomic mRNA level at 1 uM measured after 5 days by Northern blot analysis; assay type: functional, organism-based; settings: time 5.0 day
[14] = AUC (last) in CD-1 mouse plasma at 3 mg/kg, iv measured for 24 hrs by LC-MS/MS analysis; assay type: ADME, organism-based; parameters: route intravenous, time 24 hrs, dose 3 mg/kg
OATP1B1 = test: Ratio of drug uptake in HEK293 cells transfected with OATP1B1 (unknown origin) in absence of transporter inhibitor, estradiol-17beta-glucuronide to drug uptake in HEK293 cells in absence of transporter inhibitor, estradiol-17beta-glucuronide by LC-MS/MS analysis; assay type: ADME, cell-based; settings: human, HEK293 cells transfected with OATP1B1 versus HEK293 cells
[15] = Drug concentration in CD-1 mouse liver at 8 mg/kg, po measured after 30 mins by LC-MS/MS analysis; assay type: ADME, organism-based; settings: read-out: Ct
[16] = Drug concentration in CD-1 mouse liver at 8 mg/kg, po measured after 15 mins by LC-MS/MS analysis; assay type: ADME, organism-based; settings: read-out: Ct

Terminal nucleotidyltransferase 4B (Homo sapiens), sequence (Q8NDF8 whole entry): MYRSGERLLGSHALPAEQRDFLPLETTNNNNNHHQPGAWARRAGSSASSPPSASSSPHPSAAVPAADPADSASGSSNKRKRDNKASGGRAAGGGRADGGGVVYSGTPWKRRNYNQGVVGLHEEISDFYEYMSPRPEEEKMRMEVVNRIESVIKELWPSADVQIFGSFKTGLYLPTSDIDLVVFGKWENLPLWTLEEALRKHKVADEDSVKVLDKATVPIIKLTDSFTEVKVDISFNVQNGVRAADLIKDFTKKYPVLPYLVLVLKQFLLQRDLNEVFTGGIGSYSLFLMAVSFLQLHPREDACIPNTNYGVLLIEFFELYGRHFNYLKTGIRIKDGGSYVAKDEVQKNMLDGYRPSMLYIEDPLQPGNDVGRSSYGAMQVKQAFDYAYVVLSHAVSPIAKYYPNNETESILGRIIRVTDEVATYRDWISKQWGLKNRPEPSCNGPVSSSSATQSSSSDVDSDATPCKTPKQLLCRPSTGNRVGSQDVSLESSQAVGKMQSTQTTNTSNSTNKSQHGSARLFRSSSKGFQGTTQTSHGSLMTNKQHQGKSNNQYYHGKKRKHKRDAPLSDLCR
Cytochrome P450 3A4, sequence (P08684 whole entry): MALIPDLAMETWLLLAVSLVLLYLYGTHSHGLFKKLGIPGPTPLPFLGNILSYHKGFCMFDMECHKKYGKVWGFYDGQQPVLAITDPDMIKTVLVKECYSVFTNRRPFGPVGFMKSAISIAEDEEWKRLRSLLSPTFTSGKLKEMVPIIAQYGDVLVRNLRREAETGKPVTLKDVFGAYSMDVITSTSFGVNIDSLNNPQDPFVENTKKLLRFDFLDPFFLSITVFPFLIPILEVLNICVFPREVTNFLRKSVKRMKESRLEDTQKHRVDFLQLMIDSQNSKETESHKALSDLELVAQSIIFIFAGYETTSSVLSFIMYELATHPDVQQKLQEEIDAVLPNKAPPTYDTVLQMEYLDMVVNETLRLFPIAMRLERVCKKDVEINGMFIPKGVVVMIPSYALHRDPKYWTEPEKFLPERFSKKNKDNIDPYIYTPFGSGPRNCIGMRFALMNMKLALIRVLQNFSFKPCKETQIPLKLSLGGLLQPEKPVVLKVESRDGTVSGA
Cytochrome P450 2D6, sequence (P10635 whole entry): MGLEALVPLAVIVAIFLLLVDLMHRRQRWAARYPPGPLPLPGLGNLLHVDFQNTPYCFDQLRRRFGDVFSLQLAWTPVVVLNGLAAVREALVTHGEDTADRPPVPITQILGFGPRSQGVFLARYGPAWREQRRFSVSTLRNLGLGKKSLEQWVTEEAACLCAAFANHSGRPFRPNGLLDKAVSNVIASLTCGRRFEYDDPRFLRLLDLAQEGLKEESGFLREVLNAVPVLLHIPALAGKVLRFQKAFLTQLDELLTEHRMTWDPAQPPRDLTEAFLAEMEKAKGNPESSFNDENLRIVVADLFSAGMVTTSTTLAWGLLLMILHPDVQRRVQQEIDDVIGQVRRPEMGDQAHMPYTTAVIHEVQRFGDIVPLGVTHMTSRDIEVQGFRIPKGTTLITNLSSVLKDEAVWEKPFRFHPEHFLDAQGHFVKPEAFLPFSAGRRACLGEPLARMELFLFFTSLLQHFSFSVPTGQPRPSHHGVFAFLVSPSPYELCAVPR

Papp B→A at 2 h, 1 µM [1]: 0.55 ×10⁻⁶ cm/s
Papp A→B at 2 h, 1 µM [2]: 0.38 ×10⁻⁶ cm/s
Papp A→B at 1 h, 10 µM [3]: 0.39 ×10⁻⁶ cm/s
IC50 (Cytochrome P450 2D6): > 10 µM
logD at 1 h [4]: -0.65
Ratio [5]: 11.57
bioavailability [6]: 5.1%
efflux ratio at 1 h, 10 µM [8]: 5.3
IC50 (Cytochrome P450 3A4): > 10 µM
Ratio [9]: 11.17
clearance [10]: 198 mL/min/kg
concentration at 2 h [11]: 261 ng/mL and 570 nM
inhibition [12]: Dose-Dependent Effect
concentration at 6 h [13]: 76 ng/mL and 170 nM
AUC(0-t) at 24 h [14]: 255 ng·h/mL
uptake ratio (OATP1B1): 19
concentration at 0.5 h [15]: 309 ng/mL and 680 nM
concentration at 0.25 h [16]: 333 ng/mL and 730 nM
SMILES: COc1cc2c(cc1OCCCCCCC(=O)O)C[C@@H](C(C)C)n1cc(C(=O)O)c(=O)cc1-2
CC50 at 96 h [7]: > 10 µM
Activity (Hepatitis B virus): Active
